Biological target: PIK3CG (human) (UniProt P48736)
Assay: Inhibition of PIK3CG Kinase Activity

Sequence of PIK3CG (human) (P48736 whole entry, looked up): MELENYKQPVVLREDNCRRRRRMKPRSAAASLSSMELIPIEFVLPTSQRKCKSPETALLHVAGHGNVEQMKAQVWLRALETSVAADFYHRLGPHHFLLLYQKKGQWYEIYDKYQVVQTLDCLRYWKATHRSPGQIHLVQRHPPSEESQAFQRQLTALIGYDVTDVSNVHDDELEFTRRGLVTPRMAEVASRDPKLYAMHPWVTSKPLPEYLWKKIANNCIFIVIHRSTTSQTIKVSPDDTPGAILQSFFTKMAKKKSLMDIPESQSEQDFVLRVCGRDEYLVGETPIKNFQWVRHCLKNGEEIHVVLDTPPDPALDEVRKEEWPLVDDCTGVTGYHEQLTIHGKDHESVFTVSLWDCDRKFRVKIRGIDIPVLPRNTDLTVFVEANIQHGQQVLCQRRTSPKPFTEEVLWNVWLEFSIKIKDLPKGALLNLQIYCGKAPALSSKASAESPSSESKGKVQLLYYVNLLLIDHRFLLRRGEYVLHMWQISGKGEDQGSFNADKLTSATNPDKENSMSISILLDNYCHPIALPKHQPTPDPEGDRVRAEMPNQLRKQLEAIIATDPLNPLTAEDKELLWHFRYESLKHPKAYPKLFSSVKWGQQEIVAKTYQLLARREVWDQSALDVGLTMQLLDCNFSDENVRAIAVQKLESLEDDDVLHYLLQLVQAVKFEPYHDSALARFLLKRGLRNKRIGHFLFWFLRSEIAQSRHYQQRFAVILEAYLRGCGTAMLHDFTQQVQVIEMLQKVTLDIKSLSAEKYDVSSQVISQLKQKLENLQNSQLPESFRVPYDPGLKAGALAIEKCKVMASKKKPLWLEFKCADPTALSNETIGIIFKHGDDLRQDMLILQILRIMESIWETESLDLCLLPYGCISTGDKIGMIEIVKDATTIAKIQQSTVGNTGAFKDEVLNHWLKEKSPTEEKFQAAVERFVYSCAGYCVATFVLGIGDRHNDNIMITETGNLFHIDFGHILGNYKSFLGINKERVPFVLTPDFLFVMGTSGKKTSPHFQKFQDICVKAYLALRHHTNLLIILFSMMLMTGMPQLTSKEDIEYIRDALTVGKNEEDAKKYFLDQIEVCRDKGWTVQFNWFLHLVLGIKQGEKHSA

IC50 | SMILES
< 2000 nM | Cn1nc(-c2ccc3c(c2)OCCO3)c2cnc(N)nc21
< 2000 nM | Cn1nc(-c2cccc(C=O)c2)c2cnc(N)nc21
< 2000 nM | COc1c(F)cc(-c2nn(C)c3nc(N)ncc23)cc1NC(C)=O
< 2000 nM | CC(=O)c1cccc(-c2nn(C)c3nc(N)ncc23)c1F
< 2000 nM | Cn1nc(-c2cc(F)ccc2OCCO)c2cnc(N)nc21
< 2000 nM | CNS(=O)(=O)c1cc(-c2nn(C)c3nc(N)ncc23)c(OC)cc1OC
< 2000 nM | COc1ccc(OC)c(-c2nn(C)c3nc(N)ncc23)c1
< 2000 nM | Cc1[nH]c2ccc(-c3nn(C)c4nc(N)ncc34)cc2c1C
< 2000 nM | Cn1nc(-c2ccc(N)c(F)c2)c2cnc(N)nc21
< 2000 nM | Cn1nc(-c2cc(Cl)cc(Br)c2O)c2cnc(N)nc21
< 2000 nM | Cc1ccc(-c2nn(C)c3nc(N)ncc23)cc1[N+](=O)[O-]
< 2000 nM | CCN(CC)S(=O)(=O)c1cc(-c2nn(C)c3nc(N)ncc23)ccc1O
< 2000 nM | Cn1nc(-c2cc(F)c(F)c(F)c2)c2cnc(N)nc21
< 2000 nM | Cn1nc(-c2ccc(O)cc2)c2cnc(N)nc21
< 2000 nM | CCCOc1cc(F)ccc1-c1nn(C)c2nc(N)ncc12
< 2000 nM | CNS(=O)(=O)c1cccc(-c2nn(C)c3nc(N)ncc23)c1
< 2000 nM | Cn1nc(-c2ccc(OCc3ccccc3)c(F)c2)c2cnc(N)nc21
< 2000 nM | Cn1nc(-c2ccc(OCCn3ccnc3)c(F)c2)c2cnc(N)nc21
< 2000 nM | Cn1nc(-c2cc(C=O)ccc2O)c2cnc(N)nc21
< 2000 nM | Cn1nc(-c2ccc(OCCN3CCCC3)c(F)c2)c2cnc(N)nc21

IC50 | SMILES
< 2000 nM | Cn1nc(-c2ccc3c(c2)OCO3)c2cnc(N)nc21
< 2000 nM | COc1c(F)cc(F)cc1-c1nn(C)c2nc(N)ncc12
< 2000 nM | Cn1nc(-c2cc(F)c(OCCN3CCCC3)c(Br)c2)c2cnc(N)nc21
< 2000 nM | Cn1nc(-c2ccc(O)cc2O)c2cnc(N)nc21
< 2000 nM | COc1ccc(-c2nn(C)c3nc(N)ncc23)cn1
< 2000 nM | COc1cccc(OC)c1-c1nn(C)c2nc(N)ncc12
< 2000 nM | Cn1nc(-c2cccc3cccnc23)c2cnc(N)nc21
< 2000 nM | COCCOc1ccc(-c2nn(C)c3nc(N)ncc23)cc1F
< 2000 nM | Cn1nc(-c2cccc(F)c2O)c2cnc(N)nc21
< 2000 nM | Cn1nc(-c2cccc(NS(C)(=O)=O)c2)c2cnc(N)nc21
< 2000 nM | Cn1nc(-c2cc(Cl)c(O)cc2O)c2cnc(N)nc21
< 2000 nM | CC(C)Cc1ccc(-c2nn(C)c3nc(N)ncc23)cc1
< 2000 nM | Cn1nc(-c2cccc(C#N)c2)c2cnc(N)nc21
< 2000 nM | COc1cc(F)ccc1-c1nn(C)c2nc(N)ncc12
< 2000 nM | Cn1nc(-c2cc(Br)c(O)c(Br)c2)c2cnc(N)nc21
< 2000 nM | Cn1nc(-c2cc(C(F)(F)F)cc(Cl)c2O)c2cnc(N)nc21
< 2000 nM | Cn1nc(-c2cc(Cl)c(OC(F)(F)F)c(Br)c2O)c2cnc(N)nc21
< 2000 nM | COc1c(F)cc(-c2nn(C)c3nc(N)ncc23)cc1F
< 2000 nM | COc1c(Cl)cc(C(F)(F)F)cc1-c1nn(C)c2nc(N)ncc12
< 2000 nM | Cn1nc(-c2cc(F)cc(Br)c2)c2cnc(N)nc21

The remaining lines, values behind:

SMILES | IC50
COc1ccc(C(=O)O)cc1-c1nn(C)c2nc(N)ncc12 | < 2000 nM
Cc1cccc(-c2nn(C)c3nc(N)ncc23)c1 | < 2000 nM
Cn1nc(-c2cc(F)cc(F)c2)c2cnc(N)nc21 | < 2000 nM
COc1ccc(CO)cc1-c1nn(C)c2nc(N)ncc12 | < 2000 nM
Cn1nc(-c2ccc(Cl)s2)c2cnc(N)nc21 | < 2000 nM
COc1ccc(Br)cc1-c1nn(C)c2nc(N)ncc12 | < 2000 nM
COc1cc(OC(F)(F)F)c(Cl)cc1-c1nn(C)c2nc(N)ncc12 | < 2000 nM
COc1cc(OC(F)(F)F)ccc1-c1nn(C)c2nc(N)ncc12 | < 2000 nM
CC(=O)c1cccc(-c2nn(C)c3nc(N)ncc23)c1 | < 2000 nM
Cn1nc(-c2ccnc(Cl)c2)c2cnc(N)nc21 | < 2000 nM
COc1ccc(-c2nn(C)c3nc(N)ncc23)cc1Cl | < 2000 nM
COc1ccc(C(=O)NC(C)C)cc1-c1nn(C)c2nc(N)ncc12 | < 2000 nM
COc1ncc(-c2nn(C)c3nc(N)ncc23)cn1 | < 2000 nM
Cn1nc(-c2cc(F)c(O)c(C=O)c2)c2cnc(N)nc21 | < 2000 nM
COc1ccc(C(F)(F)F)cc1-c1nn(C)c2nc(N)ncc12 | < 2000 nM
Cn1nc(-c2cc(F)c(C#N)c(F)c2)c2cnc(N)nc21 | < 2000 nM
Cn1nc(-c2cc(F)c(O)c(C#N)c2)c2cnc(N)nc21 | < 2000 nM
Cn1nc(-c2ccc(Cl)c(NS(C)(=O)=O)c2)c2cnc(N)nc21 | < 2000 nM
Cn1nc(-c2cc(F)c(C(=O)O)c(F)c2)c2cnc(N)nc21 | < 2000 nM
CC(C)NC(=O)c1cccc(-c2nn(C)c3nc(N)ncc23)c1 | < 2000 nM
CC(C)Oc1ccc(-c2nn(C)c3nc(N)ncc23)cc1Cl | < 2000 nM
Cn1nc(-c2cccc(F)c2)c2cnc(N)nc21 | < 2000 nM

SMILES | IC50
COc1ccc(-c2nn(C)c3nc(N)nc(NCc4ccccc4)c23)cc1F | < 2000 nM
Cn1nc(-c2ccc3cc[nH]c3c2)c2cnc(N)nc21 | < 2000 nM
COc1cc(-c2nn(C)c3nc(N)ncc23)cc(OC)c1OC | < 2000 nM
Cn1nc(-c2cnc(N3CCNCC3)nc2)c2cnc(N)nc21 | < 2000 nM
Cn1nc(-c2cccc(O)c2)c2cnc(N)nc21 | < 2000 nM
Cn1nc(-c2cc(F)c(O)c(Br)c2)c2cnc(N)nc21 | < 2000 nM
CC(C)Oc1ccc(-c2nn(C)c3nc(N)ncc23)cc1F | < 2000 nM
COc1ccc(-c2nn(C)c3nc(N)ncc23)cc1Br | < 2000 nM
Cn1nc(-c2ccc(F)c(F)c2F)c2cnc(N)nc21 | < 2000 nM
COc1cc(-c2nn(C)c3nc(N)ncc23)ccn1 | < 2000 nM
COc1ncc(-c2nn(C)c3nc(N)ncc23)c(OC)n1 | < 2000 nM
COc1ccc(NCCCN(C)C)cc1-c1nn(C)c2nc(N)ncc12 | < 2000 nM
Cn1nc(-c2cc(Cl)c(O)c(Cl)c2)c2c(NCCN3CCOCC3)nc(N)nc21 | < 2000 nM
COc1cc(OC)c(-c2nn(C)c3nc(N)ncc23)cc1Cl | < 2000 nM
Cn1nc(-c2cc(O)cc(F)c2)c2cnc(N)nc21 | < 2000 nM
Cn1nc(-c2ccc(O)c(C(F)(F)F)c2)c2cnc(N)nc21 | < 2000 nM
COc1cc(-c2nn(C)c3nc(N)ncc23)cc(Cl)c1O | < 2000 nM
CCOc1ccc(-c2nn(C)c3nc(N)ncc23)cc1F | < 2000 nM
Cn1nc(-c2cccc(Br)c2OCc2ccccc2F)c2cnc(N)nc21 | < 2000 nM
COc1ccc(Cl)cc1-c1nn(C)c2nc(N)ncc12 | < 2000 nM
Cc1noc(C)c1-c1nn(C)c2nc(N)ncc12 | < 2000 nM
Cn1nc(-c2ccncc2)c2cnc(N)nc21 | < 2000 nM

— the Kinase Knowledgebase extract (Sharma et al. 2016)
